This assay addresses human α2δ-1 subunit of Cav2.2 calcium channel (Homo sapiens (Human), UniProt P54289). As to the kind of experiment: Binding assay to human α2δ-1 subunit of Cav2.2 calcium channel ([3H]-Gabapentin). The following applies: binding to α2δ-1, [3H]-Gabapentin; read-out: Ki (nM) α2δ-1. In outline: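 Radioactivity on dried GF/C filters quantified by scintillation after filtration and three cold Tris-HCl (pH 7.4) washes. Incubation ran 60 min at 27° C with [3H]-gabapentin; 10 μM pregabalin gave nonspecific binding.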
Chain of human α2δ-1 subunit of Cav2.2 calcium channel (P54289 25-1103): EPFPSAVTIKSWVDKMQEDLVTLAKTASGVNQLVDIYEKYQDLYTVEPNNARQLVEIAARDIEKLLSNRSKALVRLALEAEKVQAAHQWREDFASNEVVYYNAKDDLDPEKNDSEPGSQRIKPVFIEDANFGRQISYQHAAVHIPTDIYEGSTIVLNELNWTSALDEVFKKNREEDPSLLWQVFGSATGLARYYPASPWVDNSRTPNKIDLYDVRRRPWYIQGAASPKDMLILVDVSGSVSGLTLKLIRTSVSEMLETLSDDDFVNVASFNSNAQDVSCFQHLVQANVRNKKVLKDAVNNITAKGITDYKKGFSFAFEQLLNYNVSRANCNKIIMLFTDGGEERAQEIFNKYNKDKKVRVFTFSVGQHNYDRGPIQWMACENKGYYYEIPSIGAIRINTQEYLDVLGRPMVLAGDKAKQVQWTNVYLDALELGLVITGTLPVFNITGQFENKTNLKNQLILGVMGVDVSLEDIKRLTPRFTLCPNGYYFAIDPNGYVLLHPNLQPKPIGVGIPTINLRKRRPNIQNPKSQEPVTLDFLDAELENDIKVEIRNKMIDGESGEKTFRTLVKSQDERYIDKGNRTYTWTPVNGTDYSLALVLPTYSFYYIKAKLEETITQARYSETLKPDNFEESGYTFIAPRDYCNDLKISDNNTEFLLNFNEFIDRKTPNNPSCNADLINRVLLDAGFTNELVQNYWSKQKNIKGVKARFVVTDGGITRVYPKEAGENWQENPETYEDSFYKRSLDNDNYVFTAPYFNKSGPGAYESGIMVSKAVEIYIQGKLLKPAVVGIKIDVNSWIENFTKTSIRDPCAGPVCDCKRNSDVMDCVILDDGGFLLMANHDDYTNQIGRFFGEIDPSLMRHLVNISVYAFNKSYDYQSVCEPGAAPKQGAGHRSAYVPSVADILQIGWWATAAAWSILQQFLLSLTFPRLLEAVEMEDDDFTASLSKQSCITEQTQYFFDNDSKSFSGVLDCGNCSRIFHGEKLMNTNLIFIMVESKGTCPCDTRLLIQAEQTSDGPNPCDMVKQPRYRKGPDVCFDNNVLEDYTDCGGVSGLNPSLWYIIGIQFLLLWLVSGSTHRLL
For `CN(CCC(Oc1cccc(N2CCN(C)c3nc(N(C)C)ncc3C2=O)c1)c1cccs1)C(=O)OCC[Si](C)(C)C` (stereo not shown) [Example 133, 2-(trimethylsilyl)ethyl (3-(3-(2-(dimethylamino)-9-methyl-5-oxo-5,7,8,9-tetrahydro-6H-pyrimido[4,5-e][1,4]diazepin-6-yl)phenoxy)-3-(thiophen-2-yl)propyl)(methyl) carbamate], the inhibition constant (Ki) is > 3000 nM.

As for `CCNc1ncc2c(n1)N(C)CCN(c1cccc(OC(CCN(CCF)C(=O)OC(C)(C)C)c3cccs3)c1)C2=O` (stereo not shown) [Example 134, tert-butyl (3-(3-(2-(ethylamino)-9-methyl-5-oxo-5,7,8,9-tetrahydro-6H-pyrimido[4,5-e][1,4]diazepin-6-yl)phenoxy)-3-(thiophen-2-yl)propyl)(2-fluoroethyl)carbamate], the Ki is > 3000 nM.

Turning to `CCNc1ncc2c(n1)N(C)CCN(Cc1cccc(OC(CN(C)C(=O)OC(C)(C)C)c3ccccc3)c1)C2=O` (stereo not shown) [Example 135, tert-butyl (2-(3-((2-(ethylamino)-9-methyl-5-oxo-5,7,8,9-tetrahydro-6H-pyrimido[4,5-e][1,4]diazepin-6-yl)methyl)phenoxy)-2-phenylethyl)(methyl) carbamate], the Ki was > 3000 nM.

In the case of `CCNc1ncc2c(n1)N(C)CCN(Cc1ccc(OC(CN(C)C(=O)OC(C)(C)C)c3ccccc3)cc1)C2=O` (stereo not shown) [Example 136, tert-butyl (2-(4-((2-(ethylamino)-9-methyl-5-oxo-5,7,8,9-tetrahydro-6H-pyrimido[4,5-e][1,4]diazepin-6-yl)methyl)phenoxy)-2-phenylethyl)(methyl) carbamate], the Ki is > 3000 nM.

As for `CCNc1ncc2c(n1)N(C)CCN(Cc1ccc(CN(C)C(=O)OC(C)(C)C)cc1)C2=O` [Example 137, tert-butyl (4-((2-(ethylamino)-9-methyl-5-oxo-5,7,8,9-tetrahydro-6H-pyrimido[4,5-e][1,4]diazepin-6-yl)methyl)benzyl) (methyl)carbamate], the inhibition constant (Ki) was > 3000 nM.

As for `COc1ncc2c(n1)N(C)CCN(c1cccc(CO[C@H](CCN(C)C(=O)OC(C)(C)C)c3ccccc3)c1)C2=O` [Example 138, tert-Butyl (R)-(3-((3-(2-methoxy-9-methyl-5-oxo-5,7,8,9-tetrahydro-6H-pyrimido[4,5-e][1,4]diazepin-6-yl)benzyl)oxy)-3-phenylpropyl)(methyl)carbamate], the Ki is > 3000 nM.

`COc1ncc2c(n1)N(C)CCN(c1cccc(COC(CCN(C)C(=O)OC(C)(C)C)c3cccs3)c1)C2=O` (stereo not shown) [Example 139, tert-butyl (3-((3-(2-methoxy-9-methyl-5-oxo-5,7,8,9-tetrahydro-6H-pyrimido[4,5-e][1,4]diazepin-6-yl)benzyl)oxy)-3-(thiophen-2-yl)propyl)(methyl)carbamate]: the Ki is > 3000 nM.

For the compound `CN(CC[C@@H](OCc1cccc(N2CCN(C)c3nc(O)ncc3C2=O)c1)c1ccccc1)C(=O)OC(C)(C)C` [Example 140, tert-Butyl (R)-(3-((3-(2-hydroxy-9-methyl-5-oxo-5,7,8,9-tetrahydro-6H-pyrimido[4,5-e][1,4]diazepin-6-yl)benzyl)oxy)-3-phenylpropyl)(methyl)carbamate], the inhibitory constant (Ki) is > 3000 nM.

With `CN(CCC(OCc1cccc(N2CCN(C)c3nc(O)ncc3C2=O)c1)c1cccs1)C(=O)OC(C)(C)C` (stereo not shown) [Example 141, tert-butyl (3-((3-(2-hydroxy-9-methyl-5-oxo-5,7,8,9-tetrahydro-6H-pyrimido[4,5-e][1,4]diazepin-6-yl)benzyl)oxy)-3-(thiophen-2-yl)propyl)(methyl)carbamate], the Ki is > 3000 nM.

For the compound `Cc1ncc2c(n1)N(C)CCN(c1cccc(CO[C@H](CCN(C)C(=O)OC(C)(C)C)c3ccccc3)c1)C2=O` [Example 142, tert-Butyl (R)-(3-((3-(2,9-dimethyl-5-oxo-5,7,8,9-tetrahydro-6H-pyrimido[4,5-e][1,4]diazepin-6-yl)benzyl)oxy)-3-phenylpropyl)(methyl)carbamate], the inhibition constant (Ki) is > 3000 nM.

For `Cc1ncc2c(n1)N(C)CCN(c1cccc(COC(CCN(C)C(=O)OC(C)(C)C)c3cccs3)c1)C2=O` (stereo not shown) [Example 143, tert-butyl (3-((3-(2,9-dimethyl-5-oxo-5,7,8,9-tetrahydro-6H-pyrimido[4,5-e][1,4]diazepin-6-yl)benzyl)oxy)-3-(thiophen-2-yl)propyl)(methyl) carbamate], the Ki was > 3000 nM.

`Cc1ncc2c(n1)N(C)CCN(c1cccc(OC(CCN(C)C(=O)OCC[Si](C)(C)C)c3cccs3)c1)C2=O` (stereo not shown) [Example 144, 2-(trimethylsilyl)ethyl (3-(3-(2,9-dimethyl-5-oxo-5,7,8,9-tetrahydro-6H-pyrimido[4,5-e][1,4]diazepin-6-yl)phenoxy)-3-(thiophen-2-yl)propyl)(methyl) carbamate]: the inhibition constant Ki was > 3000 nM.

For `CN(CC[C@@H](OCc1cccc(N2CCN(C)c3ncncc3C2=O)c1)c1ccccc1)C(=O)OC(C)(C)C` [Example 145, tert-Butyl (R)-methyl(3-((3-(9-methyl-5-oxo-5,7,8,9-tetrahydro-6H-pyrimido[4,5-e][1,4]diazepin-6-yl)benzyl)oxy)-3-phenylpropyl)carbamate], the Ki was > 3000 nM.

With `CN(CCC(OCc1cccc(N2CCN(C)c3ncncc3C2=O)c1)c1cccs1)C(=O)OC(C)(C)C` (stereo not shown) [Example 146, tert-butyl methyl(3-((3-(9-methyl-5-oxo-5,7,8,9-tetrahydro-6H-pyrimido[4,5-e][1,4]diazepin-6-yl)benzyl)oxy)-3-(thiophen-2-yl)propyl)carbamate], the Ki is > 3000 nM.

Take `CN(CCC(Oc1cccc(N2CCN(C)c3ncncc3C2=O)c1)c1cccs1)C(=O)OCC[Si](C)(C)C` (stereo not shown) [Example 147, 2-(trimethylsilyl)ethyl methyl(3-(3-(9-methyl-5-oxo-5,7,8,9-tetrahydro-6H-pyrimido[4,5-e][1,4]diazepin-6-yl)phenoxy)-3-(thiophen-2-yl)propyl)carbamate]: the Ki is > 3000 nM.

For `CNCC(Oc1cccc(N2CCN(C)c3nc(SC)ncc3C2=O)c1)c1ccccc1` (stereo not shown) [Example 155, 9-methyl-6-(3-(2-(methylamino)-1-phenylethoxy)phenyl)-2-(methylthio)-6,7,8,9-tetrahydro-5H-pyrimido[4,5-e][1,4]diazepin-5-one], the Ki is > 3000 nM.

Regarding `CCNc1ncc2c(n1)N(C)CCN(c1cccc(OC(CN)c3ccccc3)c1)C2=O` (stereo not shown) [Example 156, 6-(3-(2-amino-1-phenylethoxy)phenyl)-2-(ethylamino)-9-methyl-6,7,8,9-tetrahydro-5H-pyrimido[4,5-e][1,4]diazepin-5-one], the Ki was > 3000 nM.

On to `CCNc1ncc2c(n1)N(C)CCN(c1cccc(OC(C)CNC)c1)C2=O` (stereo not shown) [Example 157, 2-(ethylamino)-9-methyl-6-(3-((1-(methylamino)propan-2-yl)oxy)phenyl)-6,7,8,9-tetrahydro-5H-pyrimido[4,5-e][1,4]diazepin-5-one], for which the inhibition constant Ki fell in the range of 500 to 3000 nM.

As to `CCNc1ncc2c(n1)N(C)CCN(c1cccc(OC(CNC)C(C)C)c1)C2=O` (stereo not shown) [Example 158, 2-(ethylamino)-9-methyl-6-(3-((3-methyl-1-(methylamino)butan-2-yl)oxy)phenyl)-6,7,8,9-tetrahydro-5H-pyrimido[4,5-e][1,4]diazepin-5-one], the Ki was in the range of 500 to 3000 nM.

In the case of `CCNc1ncc2c(n1)N(C)CCN(c1cccc(OCCCNC)c1)C2=O` [Example 168, 2-(ethylamino)-9-methyl-6-(3-(3-(methylamino)propoxy)phenyl)-6,7,8,9-tetrahydro-5H-pyrimido[4,5-e][1,4]diazepin-5-one], the Ki is 100 to 500 nM.

For `CCNc1ncc2c(n1)N(C)CCN(c1cccc(OCCNC)c1)C2=O` [Example 170, 2-(ethylamino)-9-methyl-6-(3-(2-(methylamino)ethoxy)phenyl)-6,7,8,9-tetrahydro-5H-pyrimido[4,5-e][1,4]diazepin-5-one], the Ki was in the range of 100 to 500 nM.

As to `CCNc1ncc2c(n1)N(C)CCN(c1cccc(CCCNC)c1)C2=O` [Example 171, 2-(ethylamino)-9-methyl-6-(3-(3-(methylamino)propyl)phenyl)-6,7,8,9-tetrahydro-5H-pyrimido[4,5-e][1,4]diazepin-5-one], the inhibition constant Ki lay in the range of 100 to 500 nM.

For `CCNc1ncc2c(n1)N(C)CCN(c1cccc(CCNC)c1)C2=O` [Example 172, 2-(ethylamino)-9-methyl-6-(3-(2-(methylamino)ethyl)phenyl)-6,7,8,9-tetrahydro-5H-pyrimido[4,5-e][1,4]diazepin-5-one], the inhibition constant (Ki) was 100 to 500 nM.

With `CCNc1ncc2c(n1)N(C)CCN(c1cccc(CNC)c1)C2=O` [Example 174, 2-(ethylamino)-9-methyl-6-(3-((methylamino)methyl)phenyl)-6,7,8,9-tetrahydro-5H-pyrimido[4,5-e][1,4]diazepin-5-one], the inhibition constant Ki was 500 to 3000 nM.

Turning to `CCNc1ncc2c(n1)N(C)CCN(c1cccc(OC3CCNC3)c1)C2=O` (stereo not shown) [Example 175, 2-(ethylamino)-9-methyl-6-(3-(pyrrolidin-3-yloxy)phenyl)-6,7,8,9-tetrahydro-5H-pyrimido[4,5-e][1,4]diazepin-5-one], the Ki lay in the range of 100 to 500 nM.

For the compound `CCNc1ncc2c(n1)N(C)CCN(c1cccc(O)c1)C2=O` [Example 177, 2-(ethylamino)-6-(3-hydroxyphenyl)-9-methyl-6,7,8,9-tetrahydro-5H-pyrimido[4,5-e][1,4]diazepin-5-one], the Ki is > 3000 nM.

Take `CCNc1ncc2c(n1)N(C)CCN(c1ccc(O)cc1)C2=O` [Example 178, 2-(ethylamino)-6-(4-hydroxyphenyl)-9-methyl-6,7,8,9-tetrahydro-5H-pyrimido[4,5-e][1,4]diazepin-5-one]: the inhibitory constant (Ki) was > 3000 nM.

`CCNc1ncc2c(n1)N(C)CCN(c1cccc(-n3cc(CNC)nn3)c1)C2=O` [Example 180, 2-(ethylamino)-9-methyl-6-(3-(4-((methylamino)methyl)-1H-1,2,3-triazol-1-yl)phenyl)-6,7,8,9-tetrahydro-5H-pyrimido[4,5-e][1,4]diazepin-5-one]: the inhibitory constant (Ki) is 100 to 500 nM.

One may read the Ki as a measure of affinity in units of concentration, obtained from inhibition or displacement.

Source of the values: patent publication US10590140B2, “Tetrahydropyrimidodiazepine and dihydropyridodiazepine compounds for treating pain and pain related conditions” (ESTEVE PHARMACEUTICALS, S.A., priority 2016, dated 2020).
